Reference: patent publication US20040204357A1, “Modulator of the megalin-mediated uptake of radiotherapeutics and/or radiodiagnostics into kidney cells and their use in therapy and diagnostics” (priority 2003, published 2004)
Like-named read-outs stand apart in the source and are kept apart here. Square brackets hold non-standard residues; d marks the D form. Peptide text beside a SMILES is read from it. * marks the point of attachment. X1 = NCCCC[C@H](NC(=O)[C@H](CS)NC(=O)[C@H](CCCCN)NC(=O)[C@@H](N)CNC(=O)C*)C(N)=O; NMeF = CN[C@@H](Cc1ccccc1)C(=O)O; hCys = N[C@@H](CCS)C(=O)O

Assays:
[1] = Biodistribution of radiopharmaceuticals in RAP-deficient mice and control strain C57BL/6J, organs, urine and faeces counted for radioactivity; assay type: in vivo; settings: mouse, total radioactivity, single intravenous injection 1-2 μCi/animal, 24 hours post injection, n = 3; for tissue uptake at 24 h: kidneys; for dose excreted at 24 h: urine, read-out: Urine (% ID)
Method: In order to investigate, whether megalin and cubilin play a role in the renal uptake of radiopharmaceuticals into cells of the proximal tubule, in-vivo experiments with RAP-deficient mice (Jax®Mice, strain B6.129S7-Lrpap1^tmlHer) were carried out.
RAP is mainly located in the endoplasmatic reticulum where it is responsible for the proper folding and escort of megalin to the plasma membrane (Willnow, 1995). RAP also binds to other members of the LDL-receptor family, such as the receptor LRP (LDL-receptor related protein) which is not expressed in the kidneys but mostly in the liver and the brain. In RAP-deficient mice the megalin expression in the kidneys is reduced by about 80% (Bim, 2000) and also the cubilin expression is reduced by some extend. These mice are therefore a representative model to study the megalin dependence of the uptake of radiopharmaceuticals. There exist also megalin knock-out mice which have the disadvantage that only 2% of the bred animals survive to adulthood due to several malformations especially of the forebrain (Leheste, 1999).
RAP-deficient mice (stock #002987) and mice of the control strain C57BL/6J (Jax®Mice, stock #000664) were treated with a single intravenous injection (1-2 μCi/animal) of the following radiopharmaceuticals:
After 24 hours post injection the animals were killed and the organs as well as the collected urine and faeces counted for radioactivity. […]

[2] = molecular target: megalin (Homo sapiens, UniProt P98164); settings: cited from earlier work
[3] = B6.129S7-Lrpap1^tmlHer (RAP-deficient), RAP−/− (RAP-deficient) mice

Sequence of megalin (P98164 26-4655, species assumed): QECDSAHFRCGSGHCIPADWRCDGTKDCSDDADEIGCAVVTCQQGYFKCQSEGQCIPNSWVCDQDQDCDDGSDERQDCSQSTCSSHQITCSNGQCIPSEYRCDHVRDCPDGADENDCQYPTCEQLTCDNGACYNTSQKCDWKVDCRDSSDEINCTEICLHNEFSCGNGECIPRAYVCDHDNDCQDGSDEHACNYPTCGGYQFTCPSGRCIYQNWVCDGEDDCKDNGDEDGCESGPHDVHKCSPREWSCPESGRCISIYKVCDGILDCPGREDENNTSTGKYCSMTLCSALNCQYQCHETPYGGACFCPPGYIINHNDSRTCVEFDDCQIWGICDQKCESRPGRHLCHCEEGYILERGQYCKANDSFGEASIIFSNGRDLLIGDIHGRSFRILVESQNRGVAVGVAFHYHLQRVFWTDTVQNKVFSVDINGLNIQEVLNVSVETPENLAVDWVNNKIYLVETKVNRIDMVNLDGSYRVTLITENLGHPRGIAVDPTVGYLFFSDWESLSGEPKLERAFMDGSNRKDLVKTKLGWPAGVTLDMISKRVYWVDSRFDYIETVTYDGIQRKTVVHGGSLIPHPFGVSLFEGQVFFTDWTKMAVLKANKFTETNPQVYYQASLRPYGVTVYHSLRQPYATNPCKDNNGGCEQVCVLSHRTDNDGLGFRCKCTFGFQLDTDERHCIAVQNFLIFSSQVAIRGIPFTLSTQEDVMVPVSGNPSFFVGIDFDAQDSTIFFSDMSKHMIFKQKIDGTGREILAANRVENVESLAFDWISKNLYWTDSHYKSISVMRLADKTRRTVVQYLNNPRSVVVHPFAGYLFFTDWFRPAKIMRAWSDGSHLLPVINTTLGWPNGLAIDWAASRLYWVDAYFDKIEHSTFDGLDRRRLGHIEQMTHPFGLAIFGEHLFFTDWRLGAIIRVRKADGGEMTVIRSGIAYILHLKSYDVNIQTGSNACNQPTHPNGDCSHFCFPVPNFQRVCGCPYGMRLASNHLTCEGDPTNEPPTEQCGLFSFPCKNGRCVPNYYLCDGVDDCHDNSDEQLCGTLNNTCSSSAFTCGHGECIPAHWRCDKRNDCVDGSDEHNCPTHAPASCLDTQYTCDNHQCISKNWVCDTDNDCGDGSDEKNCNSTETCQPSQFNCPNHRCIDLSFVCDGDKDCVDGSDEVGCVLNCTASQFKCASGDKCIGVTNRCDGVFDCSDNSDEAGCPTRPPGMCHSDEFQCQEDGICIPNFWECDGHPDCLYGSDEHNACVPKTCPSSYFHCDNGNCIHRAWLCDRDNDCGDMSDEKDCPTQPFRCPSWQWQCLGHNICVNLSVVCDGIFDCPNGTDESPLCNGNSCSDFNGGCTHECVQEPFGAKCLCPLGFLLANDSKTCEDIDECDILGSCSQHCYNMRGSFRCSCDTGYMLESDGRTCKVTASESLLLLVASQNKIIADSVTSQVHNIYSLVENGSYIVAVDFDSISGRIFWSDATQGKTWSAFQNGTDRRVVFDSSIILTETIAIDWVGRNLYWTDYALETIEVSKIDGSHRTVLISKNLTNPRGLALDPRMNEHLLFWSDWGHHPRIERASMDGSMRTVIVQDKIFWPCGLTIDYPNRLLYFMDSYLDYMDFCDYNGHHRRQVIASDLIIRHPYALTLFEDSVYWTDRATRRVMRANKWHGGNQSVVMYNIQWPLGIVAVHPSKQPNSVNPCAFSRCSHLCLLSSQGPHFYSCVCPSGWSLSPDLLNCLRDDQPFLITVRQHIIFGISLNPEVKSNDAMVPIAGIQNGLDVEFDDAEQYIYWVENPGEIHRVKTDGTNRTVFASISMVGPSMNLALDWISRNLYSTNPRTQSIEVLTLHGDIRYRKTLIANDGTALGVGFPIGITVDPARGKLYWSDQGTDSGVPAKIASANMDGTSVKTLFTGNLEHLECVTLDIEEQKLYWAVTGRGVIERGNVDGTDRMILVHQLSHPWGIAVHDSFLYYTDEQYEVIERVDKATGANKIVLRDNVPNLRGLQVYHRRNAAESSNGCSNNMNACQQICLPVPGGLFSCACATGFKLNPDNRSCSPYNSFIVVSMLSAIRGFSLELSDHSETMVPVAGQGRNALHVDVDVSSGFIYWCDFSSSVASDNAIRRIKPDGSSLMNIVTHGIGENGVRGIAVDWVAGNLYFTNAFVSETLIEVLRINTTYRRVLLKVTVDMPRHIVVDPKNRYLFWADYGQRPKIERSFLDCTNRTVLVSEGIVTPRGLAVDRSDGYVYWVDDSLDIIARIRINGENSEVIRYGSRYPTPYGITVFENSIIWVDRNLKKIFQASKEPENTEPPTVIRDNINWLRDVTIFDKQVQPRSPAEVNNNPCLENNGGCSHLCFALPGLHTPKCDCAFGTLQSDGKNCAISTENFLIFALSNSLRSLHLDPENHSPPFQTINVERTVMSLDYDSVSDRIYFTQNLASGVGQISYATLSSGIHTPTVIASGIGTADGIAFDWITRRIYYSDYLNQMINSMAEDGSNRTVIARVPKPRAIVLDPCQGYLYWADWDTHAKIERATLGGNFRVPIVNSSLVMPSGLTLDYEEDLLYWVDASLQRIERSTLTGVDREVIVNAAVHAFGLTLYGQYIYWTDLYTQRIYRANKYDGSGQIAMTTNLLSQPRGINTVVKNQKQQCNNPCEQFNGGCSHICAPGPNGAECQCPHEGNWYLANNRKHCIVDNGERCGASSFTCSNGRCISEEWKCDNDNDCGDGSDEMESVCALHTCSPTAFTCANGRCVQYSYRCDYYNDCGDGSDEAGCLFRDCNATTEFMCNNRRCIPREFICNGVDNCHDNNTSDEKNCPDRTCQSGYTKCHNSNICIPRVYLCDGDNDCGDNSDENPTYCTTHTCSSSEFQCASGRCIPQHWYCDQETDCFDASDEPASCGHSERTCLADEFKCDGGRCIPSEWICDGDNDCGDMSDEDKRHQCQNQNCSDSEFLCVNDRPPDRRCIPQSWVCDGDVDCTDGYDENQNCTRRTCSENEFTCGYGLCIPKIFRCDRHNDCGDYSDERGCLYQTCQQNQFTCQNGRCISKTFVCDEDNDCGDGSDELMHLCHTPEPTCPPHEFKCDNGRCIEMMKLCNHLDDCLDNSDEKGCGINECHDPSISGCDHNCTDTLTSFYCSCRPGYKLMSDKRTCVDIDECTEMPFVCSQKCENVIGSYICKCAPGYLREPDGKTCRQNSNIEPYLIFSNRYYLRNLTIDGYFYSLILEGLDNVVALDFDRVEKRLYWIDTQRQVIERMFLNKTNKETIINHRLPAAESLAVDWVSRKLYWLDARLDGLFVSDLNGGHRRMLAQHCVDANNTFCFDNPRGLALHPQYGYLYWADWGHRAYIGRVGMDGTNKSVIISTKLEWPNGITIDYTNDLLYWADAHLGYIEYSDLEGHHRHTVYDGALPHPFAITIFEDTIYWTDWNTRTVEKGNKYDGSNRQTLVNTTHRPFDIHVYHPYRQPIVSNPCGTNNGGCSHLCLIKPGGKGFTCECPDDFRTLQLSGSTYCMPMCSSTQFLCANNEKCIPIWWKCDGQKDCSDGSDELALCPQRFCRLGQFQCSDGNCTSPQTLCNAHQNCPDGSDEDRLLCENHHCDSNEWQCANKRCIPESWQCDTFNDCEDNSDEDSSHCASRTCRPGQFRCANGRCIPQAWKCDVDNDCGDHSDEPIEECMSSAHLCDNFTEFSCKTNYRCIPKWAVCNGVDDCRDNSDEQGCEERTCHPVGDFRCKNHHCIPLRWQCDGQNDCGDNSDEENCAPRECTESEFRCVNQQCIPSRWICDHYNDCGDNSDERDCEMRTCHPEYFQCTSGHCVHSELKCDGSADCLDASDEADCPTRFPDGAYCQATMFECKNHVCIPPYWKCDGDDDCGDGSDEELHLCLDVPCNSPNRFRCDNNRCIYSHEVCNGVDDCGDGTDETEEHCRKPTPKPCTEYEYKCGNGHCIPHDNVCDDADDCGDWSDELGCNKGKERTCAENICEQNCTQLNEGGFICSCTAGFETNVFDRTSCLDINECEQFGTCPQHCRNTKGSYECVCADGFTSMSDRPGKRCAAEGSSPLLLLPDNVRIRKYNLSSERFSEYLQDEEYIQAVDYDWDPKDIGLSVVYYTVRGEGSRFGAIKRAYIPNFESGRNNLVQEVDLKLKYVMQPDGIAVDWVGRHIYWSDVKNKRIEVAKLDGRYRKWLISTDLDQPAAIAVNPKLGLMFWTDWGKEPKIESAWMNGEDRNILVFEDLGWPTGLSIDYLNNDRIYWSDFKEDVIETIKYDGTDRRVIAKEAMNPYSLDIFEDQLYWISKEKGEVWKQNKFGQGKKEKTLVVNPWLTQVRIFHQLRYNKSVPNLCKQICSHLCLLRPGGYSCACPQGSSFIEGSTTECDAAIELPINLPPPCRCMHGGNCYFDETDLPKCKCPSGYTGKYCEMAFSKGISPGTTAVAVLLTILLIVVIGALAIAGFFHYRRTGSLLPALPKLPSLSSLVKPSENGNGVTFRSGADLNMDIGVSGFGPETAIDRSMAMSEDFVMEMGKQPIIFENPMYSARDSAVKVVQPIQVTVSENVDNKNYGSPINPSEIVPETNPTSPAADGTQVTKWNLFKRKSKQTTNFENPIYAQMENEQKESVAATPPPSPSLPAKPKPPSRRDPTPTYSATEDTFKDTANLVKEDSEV

| tissue uptake at 24 h [1, 3] | dose excreted at 24 h [1, 3] | tissue uptake at 24 h ([1]; Control mice (C57BL/6J)) | dose excreted at 24 h ([1]; Control mice (C57BL/6J)) | Compound | Affinity of binding to megalin [2] |
| --- | --- | --- | --- | --- | --- |
| 99.3 %ID/g | 40.4% | 261 %ID/g | 23.6% | CC(C)[C@@H]1NC(=O)[C@H](CCCCN)NC(=O)[C@@H](Cc2c[nH]c3ccccc23)NC(=O)[C@H](Cc2ccc(O)cc2)NC(=O)[C@H](Cc2ccccc2)N(C)C(=O)[C@H](CCSCC(=O)NC[C@H](N)C(=O)N[C@@H](CCCCN)C(=O)N[C@@H](CS)C(=O)N[C@@H](CCCCN)C(N)=O)NC1=O [Tc-99m-NeoTect ®, metal not drawn] (cyclo([hCys](X1)[NMeF]Y[dW]KV)) |  |
|  |  |  |  | RAP: 39 kDa chaperone-like protein that binds tightly to megalin | high affinity in the nanomolar range |
